Assay results: patent US20180161314A1, “Methods for Treating Hyperuricemia and Related Diseases” (Ardea Biosciences, Inc., priority 2010, published 2018)

How the values were obtained:
[1] = test system: gout patients with hyperuricemia; assay: Febuxostat alone and in combination with drug 1, open-label study in gout patients with hyperuricemia (Examples 23, 24); type: in vivo, human; conditions: for Mean absolute sUA reduction / Mean sUA % change / Mean sUA level: ± SE
Description: Study Objectives • To measure the effect of febuxostat alone and in combination with drug 1 on serum urate concentrations. • To evaluate the safety and tolerability of drug 1 in combination with febuxostat.
The study is open-label in gout patients with hyperuricemia, involving 2 panels of ˜10-12 patients per panel. The panels may be enrolled simultaneously.
Panel 1 receives a once-daily dose of febuxostat 40 mg with ascending doses of drug 1. Panel 2 receives a once-daily dose of febuxostat 80 mg with ascending doses of drug 1.
• Day −14 to Day 28: colchicine prophylaxis; or • Day −7 to Day 28: colchicine prophylaxis (for patients not washing out from ULT) • Days 1-7: febuxostat 40 mg qd • Days 8-14: febuxostat 40 mg qd+drug 1 400 mg qd • Days 15-21: febuxostat 40 mg qd+drug 1 600 mg qd
• Day −14 to Day 28: colchicine prophylaxis; or • Day −7 to Day 28: colchicine prophylaxis (for patients not washing out from ULT) • Days 1-7: febuxostat 80 mg qd • Days 8-14: febuxostat 80 mg qd+drug 1 400 mg qd • Days 15-21: febuxostat 80 mg qd+drug 1 600 mg qd
Gout patients on a urate lowering therapy (ULT), have previously taken a ULT or who have never taken a ULT are eligible to participate. Screening procedures to determine patient eligibility are performed within approximately 21 days of the first dose of study drug (Day 1). Subjects currently on ULT wash-out for approximately 14 days before Day 1, and begin colchicine (Colcrys® 0.6 mg qd, URL Pharma) as prophylaxis for gout flares. During the washout period, subjects who have discontinued ULT may have their sUA re-tested (at least 7 days after washing out) to confirm eligibility. Subjects not on ULT begin colchicine administration at least 7 days prior to Day 1. […] Patients intolerant of colchicine during the screening period are considered screen failures and not enrolled. Prophylactic administration of colchicine continues for 7 days after the last dose of study medication.
Eligible patients report to the study center early morning on Days −1, 7, 14, and 21 (or the afternoon/evening the day before). Serial blood samples are collected on Days −1, 7, 14, and 21. 24-hour urine collection is obtained on Days −1, 7, 14, and 21. Spot urine assessments also obtained on Day −1.
Study medication is administered to each patient and taken orally every morning with approximately 240 mL of water, at approximately the same time of the morning every day, and approximately 30 minutes after finishing a full breakfast (approximately 650 Kcal and 35% fat); the breakfast is standardized on Days −1 to 21.
Inclusion Criteria • Patient is male or post-menopausal or surgically sterile female. • Patient is 18-80 years of age, inclusive. • Patient meets one or more criteria for the diagnosis of gout as per the American Rheumatism Association (ARA) Criteria for the Classification of Acute Arthritis of Primary Gout (Appendix C). • Patient sUA≥8 mg/dL at screening. • Patient willing and able to give informed consent and adhere to visit/protocol schedules • No clinically relevant abnormalities in blood pressure (BP), heart rate (HR), body temperature and respiratory rate as per Investigator's judgment.
Subject urate serum levels are recorded, and any safety concerns assessed (by adverse events, clinical laboratory test results, vital signs, 12-lead ECGs, and physical examinations). […] Urate serum concentrations are evaluated for treatment- and/or time-dependent changes relative to baseline (Day −1), and may be expressed both in standard units (mg/dL) and as changes from baseline (e.g., percent change, absolute change, maximal change, and time or day of maximal change).
Drug 1 was tested according to the clinical trial protocol described in Example 23.
Serum urate levels were measured and absolute and % reduction levels from baseline calculated. Mean levels, mean absolute reductions (mg/dL, all data SE) and % change results are presented in the table below and in FIGS. 10 and 11. […]

[2] = target: T1, PNP (Homo sapiens, UniProt P00491); conditions: cited from earlier work
T1 sequence (P00491 1-289): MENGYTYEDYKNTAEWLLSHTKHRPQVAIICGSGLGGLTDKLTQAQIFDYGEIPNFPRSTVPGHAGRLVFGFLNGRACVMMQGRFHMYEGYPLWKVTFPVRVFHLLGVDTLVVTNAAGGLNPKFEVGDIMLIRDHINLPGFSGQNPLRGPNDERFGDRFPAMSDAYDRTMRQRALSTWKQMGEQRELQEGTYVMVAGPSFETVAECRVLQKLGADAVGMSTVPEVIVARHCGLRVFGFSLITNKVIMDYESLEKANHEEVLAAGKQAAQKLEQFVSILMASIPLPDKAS

[3] = target: xanthine oxidase (Homo sapiens, UniProt P47989); conditions: cited from earlier work
Chain of xanthine oxidase (P47989 whole entry, species assumed): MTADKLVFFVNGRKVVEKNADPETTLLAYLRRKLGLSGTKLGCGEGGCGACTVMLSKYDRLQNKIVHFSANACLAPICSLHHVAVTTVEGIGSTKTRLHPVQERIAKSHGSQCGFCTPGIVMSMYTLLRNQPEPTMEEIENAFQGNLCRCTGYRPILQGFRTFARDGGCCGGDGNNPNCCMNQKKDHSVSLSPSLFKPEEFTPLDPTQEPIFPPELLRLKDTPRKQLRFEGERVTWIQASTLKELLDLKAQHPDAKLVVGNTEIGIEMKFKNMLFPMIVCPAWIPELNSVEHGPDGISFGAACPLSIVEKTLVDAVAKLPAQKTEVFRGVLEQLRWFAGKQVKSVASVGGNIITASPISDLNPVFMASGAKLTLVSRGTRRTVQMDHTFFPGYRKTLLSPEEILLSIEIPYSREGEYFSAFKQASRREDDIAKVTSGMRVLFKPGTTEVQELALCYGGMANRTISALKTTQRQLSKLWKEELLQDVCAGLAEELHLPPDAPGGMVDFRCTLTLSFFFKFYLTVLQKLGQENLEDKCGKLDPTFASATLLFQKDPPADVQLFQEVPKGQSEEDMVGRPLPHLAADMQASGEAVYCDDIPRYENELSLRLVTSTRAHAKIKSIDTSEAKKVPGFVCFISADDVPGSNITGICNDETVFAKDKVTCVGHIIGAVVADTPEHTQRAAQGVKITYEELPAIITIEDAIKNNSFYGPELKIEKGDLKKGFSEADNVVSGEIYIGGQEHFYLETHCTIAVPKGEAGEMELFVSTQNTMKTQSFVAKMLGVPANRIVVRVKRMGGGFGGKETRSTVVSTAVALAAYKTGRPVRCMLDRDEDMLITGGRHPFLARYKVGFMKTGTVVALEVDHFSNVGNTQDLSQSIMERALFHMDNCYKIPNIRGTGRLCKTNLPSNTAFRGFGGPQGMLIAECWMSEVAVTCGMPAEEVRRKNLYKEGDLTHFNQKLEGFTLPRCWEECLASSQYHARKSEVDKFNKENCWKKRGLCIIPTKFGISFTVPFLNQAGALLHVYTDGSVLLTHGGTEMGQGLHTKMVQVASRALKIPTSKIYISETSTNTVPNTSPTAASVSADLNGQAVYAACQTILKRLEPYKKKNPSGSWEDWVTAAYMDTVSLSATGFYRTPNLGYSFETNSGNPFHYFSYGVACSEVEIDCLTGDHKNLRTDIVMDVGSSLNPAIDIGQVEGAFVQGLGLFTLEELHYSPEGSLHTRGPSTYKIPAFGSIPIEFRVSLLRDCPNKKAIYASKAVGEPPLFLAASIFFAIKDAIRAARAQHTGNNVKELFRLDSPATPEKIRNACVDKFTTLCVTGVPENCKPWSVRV

[4] = FBX 40 mg alone, FBX 40 mg + Drug 1 400 mg
[5] = FBX 40 mg qd alone days 1-7, FBX 40 mg + Drug 1 400 mg qd days 8-14
[6] = FBX 80 mg alone, FBX 80 mg + Drug 1 400 mg
[7] = FBX 80 mg qd alone days 1-7, FBX 80 mg + Drug 1 400 mg qd days 8-14

Row | Structure (SMILES) | % Response rate for sUA <3 mg/dL [1, 4] [%] | % Response rate for sUA <4 mg/dL [1, 4] [%] | % Response rate for sUA <5 mg/dL [1, 4] [%] | % Response rate for sUA <6 mg/dL [1, 4] [%] | Mean absolute sUA reduction [1, 5] [mg/dL] | Mean sUA % change [1, 5] [%] | Mean sUA level [1, 5] [mg/dL] | % Response rate for sUA <3 mg/dL [1, 6] [%] | % Response rate for sUA <4 mg/dL [1, 6] [%] | % Response rate for sUA <5 mg/dL [1, 6] [%] | % Response rate for sUA <6 mg/dL [1, 6] [%] | Mean absolute sUA reduction [1, 7] [mg/dL] | Mean sUA % change [1, 7] [%] | Mean sUA level [1, 7] [mg/dL] | Inhibition of PNP [2] | Inhibition of xanthine oxidase [3]
1 | Cc1nc(-c2ccc(OCC(C)C)c(C#N)c2)sc1C(=O)O [Febuxostat, 2-(3-Cyano-4-isobutoxyphenyl)-4-methyl-1,3-thiazole-5-carboxylic acid, reference compound] | 0 | 0 | 17 | 67 | -3.2 ± 0.21 | −35.7 ± 2.0 | 5.6 ± 0.24 | 0 | 0 | 22 | 56 | -4.6 ± 0.51 | −44.2 ± 3.5 | 5.7 ± 0.29 | – | –
2 | O=C(O)CSc1nnc(Br)n1-c1ccc(C2CC2)c2ccccc12 [Drug 1, Sodium 2-(5-bromo-4-(4-cyclopropylnaphthalen-1-yl)-4H-1,2,4-triazol-3-ylthio)acetate] | – | – | – | – | – | – | – | – | – | – | – | – | – | – | does not significantly inhibit | does not significantly inhibit
